We go through one molecule from PMC5218480 (PLoS ONE, 2017).

Structures are written as SMILES.

This assay relates to MV-4-11 cells. Description: Gene expression microarray analysis (Affymetrix PrimeView) and GSEA. More on the design: RFU PODN (11730768_x_at) / Fold change /veh PODN (11730768_x_at) / RFU LINC00158 (11744669_a_at) / Fold change /veh LINC00158 (11744669_a_at) / RFU DUSP10 (11751237_a_at) / Fold change /veh DUSP10 (11751237_a_at) / RFU ID3 (11757404_x_at) / Fold change /veh ID3 (11757404_x_at) / RFU PLEKHG5 (11737974_s_at) / Fold change /veh PLEKHG5 (11737974_s_at) / RFU LRRC4B (11730491_at) / Fold change /veh LRRC4B (11730491_at) / RFU GIMAP4 (11747438_a_at) / Fold change /veh GIMAP4 (11747438_a_at) / RFU KRT8 (11758183_x_at) / Fold change /veh KRT8 (11758183_x_at) / RFU CNN1 (11734310_a_at) / Fold change /veh CNN1 (11734310_a_at) / RFU VPS37D (11726825_at) / Fold change /veh VPS37D (11726825_at) / RFU C10orf10 (11716522_x_at) / Fold change /veh C10orf10 (11716522_x_at) / RFU KIR2DL2 /// KIR2DL4 /// KIR2DL5A /// KIR2DL5B /// KIR2DS1 /// KIR2DS2 /// KIR2DS3 /// KIR2DS4 /// KIR3DL3 /// KIR3DL3 /// KIR3DS1 (11738374_at) / Fold change /veh KIR2DL2 /// KIR2DL4 /// KIR2DL5A /// KIR2DL5B /// KIR2DS1 /// KIR2DS2 /// KIR2DS3 /// KIR2DS4 /// KIR3DL3 /// KIR3DL3 /// KIR3DS1 (11738374_at) / RFU C1QL1 (11718748_at) / Fold change /veh C1QL1 (11718748_at) / RFU TMPRSS4 (11747572_a_at) / Fold change /veh TMPRSS4 (11747572_a_at) / RFU HAMP (11756126_x_at) / Fold change /veh HAMP (11756126_x_at) / RFU RNFT2 (11725882_a_at) / Fold change /veh RNFT2 (11725882_a_at) / RFU NR4A2 (11747474_a_at) / Fold change /veh NR4A2 (11747474_a_at) / RFU ABCC12 (11746883_a_at) / Fold change /veh ABCC12 (11746883_a_at) / RFU TMEM136 (11760407_x_at) / Fold change /veh TMEM136 (11760407_x_at) / RFU CLDN22 /// WWC2 (11732394_at) / Fold change /veh CLDN22 /// WWC2 (11732394_at) / RFU HLA-DPB1 (11760878_x_at) / Fold change /veh HLA-DPB1 (11760878_x_at) / RFU SPINT1 (11716480_a_at) / Fold change /veh SPINT1 (11716480_a_at) / RFU GAP43 (11754022_s_at) / Fold change /veh GAP43 (11754022_s_at) / RFU A4GNT (11735810_at) / Fold change /veh A4GNT (11735810_at) / RFU PRB3 (11715151_x_at) / Fold change /veh PRB3 (11715151_x_at) / RFU TUBB4B (11761932_at) / Fold change /veh TUBB4B (11761932_at) / RFU CAPN14 (11732068_a_at) / Fold change /veh CAPN14 (11732068_a_at) / RFU TMCC2 (11721928_a_at) / Fold change /veh TMCC2 (11721928_a_at) / RFU IRGQ (11745062_a_at) / Fold change /veh IRGQ (11745062_a_at) / RFU FAM174B (11720279_a_at) / Fold change /veh FAM174B (11720279_a_at) / RFU TMPRSS4 (11748680_a_at) / Fold change /veh TMPRSS4 (11748680_a_at) / RFU FAM212B (11763350_a_at) / Fold change /veh FAM212B (11763350_a_at) / RFU PLEKHG5 (11743358_a_at) / Fold change /veh PLEKHG5 (11743358_a_at) / RFU ZSCAN30 (11745921_a_at) / Fold change /veh ZSCAN30 (11745921_a_at) / RFU CMKLR1 (11741424_a_at) / Fold change /veh CMKLR1 (11741424_a_at) / RFU LOC101060620 /// MAPK8IP1 (11723275_at) / Fold change /veh LOC101060620 /// MAPK8IP1 (11723275_at) / RFU SPTSSB (11747773_x_at) / Fold change /veh SPTSSB (11747773_x_at) / RFU PRSS12 (11739890_at) / Fold change /veh PRSS12 (11739890_at) / RFU BIN1 (11741810_x_at) / Fold change /veh BIN1 (11741810_x_at) / RFU WNT11 (11732464_a_at) / Fold change /veh WNT11 (11732464_a_at) / RFU C10orf10 (11716521_a_at) / Fold change /veh C10orf10 (11716521_a_at) / RFU C5orf56 (11738089_at) / Fold change /veh C5orf56 (11738089_at) / RFU CYB561 (11721691_x_at) / Fold change /veh CYB561 (11721691_x_at) / RFU ANKRD19P (11752326_a_at) / Fold change /veh ANKRD19P (11752326_a_at) / RFU OR2T12 /// OR2T33 /// OR2T8 (11738714_s_at) / Fold change /veh OR2T12 /// OR2T33 /// OR2T8 (11738714_s_at) / RFU VCAN (11748164_a_at) / Fold change /veh VCAN (11748164_a_at) / RFU JSRP1 (11732532_at) / Fold change /veh JSRP1 (11732532_at) / RFU KRTAP10-11 (11738290_x_at) / Fold change /veh KRTAP10-11 (11738290_x_at) / RFU MYO3A (11730013_a_at) / Fold change /veh MYO3A (11730013_a_at) / RFU EBF3 (11725865_a_at) / Fold change /veh EBF3 (11725865_a_at) / RFU CAMK2N1 (11719241_x_at) / Fold change /veh CAMK2N1 (11719241_x_at) / RFU C5orf56 (11738088_a_at) / Fold change /veh C5orf56 (11738088_a_at) / RFU OLFML3 (11715873_a_at) / Fold change /veh OLFML3 (11715873_a_at) / RFU LOC100653217 /// NTM (11731650_a_at) / Fold change /veh LOC100653217 /// NTM (11731650_a_at) / RFU MAPK11 (11762145_a_at) / Fold change /veh MAPK11 (11762145_a_at) / RFU FIZ1 (11724087_x_at) / Fold change /veh FIZ1 (11724087_x_at) / RFU OASL (11726364_x_at) / Fold change /veh OASL (11726364_x_at) / RFU SOX15 (11748057_x_at) / Fold change /veh SOX15 (11748057_x_at) / RFU CD79A (11719716_a_at) / Fold change /veh CD79A (11719716_a_at) / RFU HIST1H1D (11736915_at) / Fold change /veh HIST1H1D (11736915_at) / RFU CASKIN2 (11723855_a_at) / Fold change /veh CASKIN2 (11723855_a_at) / RFU LOC730098 (11760151_x_at) / Fold change /veh LOC730098 (11760151_x_at) / RFU OR4N2 (11742367_at) / Fold change /veh OR4N2 (11742367_at) / RFU PRRT2 (11749266_a_at) / Fold change /veh PRRT2 (11749266_a_at) / RFU SNX32 (11753110_a_at) / Fold change /veh SNX32 (11753110_a_at) / RFU CDHR5 (11726645_a_at) / Fold change /veh CDHR5 (11726645_a_at) / RFU RCAN1 (11760418_a_at) / Fold change /veh RCAN1 (11760418_a_at) / RFU FAM167A (11723789_a_at) / Fold change /veh FAM167A (11723789_a_at) / RFU FAM26E (11764081_at) / Fold change /veh FAM26E (11764081_at) / RFU ISYNA1 (11749810_s_at) / Fold change /veh ISYNA1 (11749810_s_at) / RFU ACY1 (11761880_at) / Fold change /veh ACY1 (11761880_at) / RFU 11764098_at / Fold change /veh 11764098_at / RFU SAMD14 (11745864_x_at) / Fold change /veh SAMD14 (11745864_x_at) / RFU NPB (11741838_a_at) / Fold change /veh NPB (11741838_a_at) / RFU TMPRSS6 (11731388_a_at) / Fold change /veh TMPRSS6 (11731388_a_at) / RFU KRTAP10-2 (11738614_at) / Fold change /veh KRTAP10-2 (11738614_at) / RFU ARHGAP8 /// PRR5-ARHGAP8 (11727945_x_at) / Fold change /veh ARHGAP8 /// PRR5-ARHGAP8 (11727945_x_at) / RFU KRTAP5-7 /// NADSYN1 (11734609_at) / Fold change /veh KRTAP5-7 /// NADSYN1 (11734609_at) / RFU RASL12 (11751679_a_at) / Fold change /veh RASL12 (11751679_a_at) / RFU CDKN2B (11736163_a_at) / Fold change /veh CDKN2B (11736163_a_at) / RFU PRF1 (11729649_at) / Fold change /veh PRF1 (11729649_at) / RFU, ZNF638 /// ZNF638-IT1 / Fold change vs veh, ZNF638 /// ZNF638-IT1 / RFU, PANK3 / Fold change vs veh, PANK3 / RFU, SH3YL1 / Fold change vs veh, SH3YL1 / RFU, ZEB2 / Fold change vs veh, ZEB2 / RFU, NRIP1 / Fold change vs veh, NRIP1 / RFU, PTTG1IP / Fold change vs veh, PTTG1IP / RFU, CAPN2 / Fold change vs veh, CAPN2 / RFU, MED14 / Fold change vs veh, MED14 / RFU, SNORA58 / Fold change vs veh, SNORA58 / RFU, C1orf63 / Fold change vs veh, C1orf63 / RFU, LRRFIP1 / Fold change vs veh, LRRFIP1 / RFU, NDUFAF7 / Fold change vs veh, NDUFAF7 / RFU, SLC12A2 / Fold change vs veh, SLC12A2 / RFU, IBTK / Fold change vs veh, IBTK / RFU, ESF1 / Fold change vs veh, ESF1 / Fold change vs veh, TMEM50B / RFU, TAOK1 / Fold change vs veh, TAOK1 / RFU, ACBD3 / Fold change vs veh, ACBD3 / RFU, TMA16 / Fold change vs veh, TMA16 / RFU, RWDD3 / Fold change vs veh, RWDD3 / RFU, BCAT1 / Fold change vs veh, BCAT1 / RFU, EDEM3 / Fold change vs veh, EDEM3 / RFU, TMEM33 / Fold change vs veh, TMEM33 / RFU, WDR75 / Fold change vs veh, WDR75 / RFU, AHCTF1 / Fold change vs veh, AHCTF1 / RFU, TFRC / Fold change vs veh, TFRC / RFU, ZDHHC17 / Fold change vs veh, ZDHHC17 / RFU, NOM1 / Fold change vs veh, NOM1 / RFU, ARL8B / Fold change vs veh, ARL8B / RFU, ZBTB11 / Fold change vs veh, ZBTB11 / RFU, TAMM41 / Fold change vs veh, TAMM41 / RFU, KIAA1704 /// LOC100996395 / Fold change vs veh, KIAA1704 /// LOC100996395 / RFU, ING1 / Fold change vs veh, ING1 / RFU, TRMT61B / Fold change vs veh, TRMT61B / RFU, FUBP3 / Fold change vs veh, FUBP3 / RFU, TP53 / Fold change vs veh, TP53 / RFU, TNKS2 / Fold change vs veh, TNKS2 / RFU, ZFP14 / Fold change vs veh, ZFP14 / RFU, ACTR2 / Fold change vs veh, ACTR2 / RFU, PPP3R1 / Fold change vs veh, PPP3R1 / RFU, PIK3R1 / Fold change vs veh, PIK3R1 / RFU, HNRNPA1 / Fold change vs veh, HNRNPA1 / RFU, RNF170 / Fold change vs veh, RNF170 / RFU, ZNF28 / Fold change vs veh, ZNF28 / RFU, RNGTT / Fold change vs veh, RNGTT / RFU, OGT / Fold change vs veh, OGT / RFU, BRD1 / Fold change vs veh, BRD1 / RFU, MARS / Fold change vs veh, MARS / RFU, ZNF655 / Fold change vs veh, ZNF655 / RFU, FAHD1 / Fold change vs veh, FAHD1 / RFU, BDP1 / Fold change vs veh, BDP1 / RFU, LRRCC1 / Fold change vs veh, LRRCC1 / RFU, ARID1A / Fold change vs veh, ARID1A / RFU, ZNF146 / Fold change vs veh, ZNF146 / RFU, ZNF330 / Fold change vs veh, ZNF330 / RFU, GPN3 / Fold change vs veh, GPN3 / RFU, C9orf123 / Fold change vs veh, C9orf123 / RFU, N4BP2L2 / Fold change vs veh, N4BP2L2 / RFU, ARFIP1 / Fold change vs veh, ARFIP1 / RFU, FAM179B / Fold change vs veh, FAM179B / RFU, BCL10 / Fold change vs veh, BCL10 / RFU, UHRF1BP1L / Fold change vs veh, UHRF1BP1L / RFU, BET1 / Fold change vs veh, BET1 / RFU, CNOT2 / Fold change vs veh, CNOT2 / RFU, ZNF268 / Fold change vs veh, ZNF268 / Fold change vs veh, ZNF507 / RFU, DGCR2 / Fold change vs veh, DGCR2 / RFU, WDSUB1 / Fold change vs veh, WDSUB1 / Fold change vs veh, HSP90B1 /// MIR3652 / RFU, ADSS / Fold change vs veh, ADSS / RFU, GK / Fold change vs veh, GK / RFU, ZNF148 / Fold change vs veh, ZNF148 / RFU, TAF9 / Fold change vs veh, TAF9 / RFU, SLC1A5 / Fold change vs veh, SLC1A5 / RFU, SLMO2 / Fold change vs veh, SLMO2 / RFU, ABCC4 / Fold change vs veh, ABCC4 / RFU, LOC101060439 /// RAP1B / Fold change vs veh, LOC101060439 /// RAP1B / RFU, RFX7 / Fold change vs veh, RFX7 / RFU, GTPBP10 / Fold change vs veh, GTPBP10 / RFU, CNEP1R1 / Fold change vs veh, CNEP1R1 / RFU, BIVM-ERCC5 /// ERCC5 / Fold change vs veh, BIVM-ERCC5 /// ERCC5 / RFU, ILF3 / Fold change vs veh, ILF3 / RFU 11762660_at / Fold change /veh 11762660_at / RFU VCAN (11757783_s_at) / Fold change /veh VCAN (11757783_s_at) / RFU DDX43 (11728927_at) / Fold change /veh DDX43 (11728927_at) / RFU KRT8 (11758188_x_at) / Fold change /veh KRT8 (11758188_x_at) / RFU NKD1 (11759106_at) / Fold change /veh NKD1 (11759106_at) / RFU SRD5A1 (11742802_a_at) / Fold change /veh SRD5A1 (11742802_a_at) / RFU TPSAB1 /// TPSB2 (11721975_s_at) / Fold change /veh TPSAB1 /// TPSB2 (11721975_s_at) / RFU GSTM3 (11746129_a_at) / Fold change /veh GSTM3 (11746129_a_at) / RFU IL23R (11737362_x_at) / Fold change /veh IL23R (11737362_x_at) / RFU TMEM51 (11727254_a_at) / Fold change /veh TMEM51 (11727254_a_at) / RFU PIWIL2 (11732686_x_at) / Fold change /veh PIWIL2 (11732686_x_at) / RFU ORM1 (11744905_x_at) / Fold change /veh ORM1 (11744905_x_at) / RFU CCDC152 (11743942_at) / Fold change /veh CCDC152 (11743942_at) / RFU ECM1 (11717891_a_at) / Fold change /veh ECM1 (11717891_a_at) / RFU IL23R (11748794_a_at) / Fold change /veh IL23R (11748794_a_at) / RFU TNFAIP8L3 (11732012_x_at) / Fold change /veh TNFAIP8L3 (11732012_x_at) / RFU MBOAT4 (11741988_at) / Fold change /veh MBOAT4 (11741988_at) / RFU 11764193_at / Fold change /veh 11764193_at / RFU TMEM53 (11763286_at) / Fold change /veh TMEM53 (11763286_at) / RFU MAGEB2 (11727129_at) / Fold change /veh MAGEB2 (11727129_at) / RFU TMEM200A (11744735_a_at) / Fold change /veh TMEM200A (11744735_a_at) / RFU CCDC152 (11751479_a_at) / Fold change /veh CCDC152 (11751479_a_at) / RFU FAM211A (11726209_a_at) / Fold change /veh FAM211A (11726209_a_at) / RFU RGS16 (11746705_a_at) / Fold change /veh RGS16 (11746705_a_at) / RFU VCAN (11755009_s_at) / Fold change /veh VCAN (11755009_s_at) / RFU RHOB (11743442_s_at) / Fold change /veh RHOB (11743442_s_at) / RFU RGS16 (11720943_a_at) / Fold change /veh RGS16 (11720943_a_at) / RFU RGS16 (11720944_at) / Fold change /veh RGS16 (11720944_at) / RFU, VPS4B / Fold change vs veh, VPS4B / RFU, CREB1 / Fold change vs veh, CREB1 / RFU, DNAJC13 / Fold change vs veh, DNAJC13 / RFU, GNAQ / Fold change vs veh, GNAQ / RFU, CDK5R1 / Fold change vs veh, CDK5R1 / RFU, ZRANB3 / Fold change vs veh, ZRANB3 / RFU, CUL4A / Fold change vs veh, CUL4A / RFU, CCNY / Fold change vs veh, CCNY / RFU, UFL1 / Fold change vs veh, UFL1 / RFU, COG3 / Fold change vs veh, COG3 / RFU, DIAPH2 / Fold change vs veh, DIAPH2 / RFU, SKA2 / Fold change vs veh, SKA2 / RFU, AFF3 / Fold change vs veh, AFF3 / RFU, LMF1 / Fold change vs veh, LMF1 / RFU, IPO11 / Fold change vs veh, IPO11 / RFU, DFFB / Fold change vs veh, DFFB / RFU, FOXP1 / Fold change vs veh, FOXP1 / RFU, CARD8 / Fold change vs veh, CARD8 / RFU, STRN3 / Fold change vs veh, STRN3 / RFU, ADK / Fold change vs veh, ADK / RFU, RASSF2 / Fold change vs veh, RASSF2 / RFU, WIPF1 / Fold change vs veh, WIPF1 / RFU, LARP1B / Fold change vs veh, LARP1B / RFU, RASA1 / Fold change vs veh, RASA1 / RFU, RB1 / Fold change vs veh, RB1 / RFU, PPFIA1 / Fold change vs veh, PPFIA1 / RFU, MAT2A / Fold change vs veh, MAT2A / RFU, CCT5 / Fold change vs veh, CCT5 / RFU, WDR92 / Fold change vs veh, WDR92 / RFU, CUX1 / Fold change vs veh, CUX1 / RFU, TTC7A / Fold change vs veh, TTC7A / RFU, TMEM135 / Fold change vs veh, TMEM135 / RFU, DEPTOR / Fold change vs veh, DEPTOR / RFU, CPM / Fold change vs veh, CPM / RFU, DNAJB6 / Fold change vs veh, DNAJB6 / RFU, CACNA2D3 / Fold change vs veh, CACNA2D3 / RFU, DTX4 / Fold change vs veh, DTX4 / RFU, TFCP2 / Fold change vs veh, TFCP2 / RFU, GMCL1 /// GMCL1P1 / Fold change vs veh, GMCL1 /// GMCL1P1 / RFU, AEBP2 / Fold change vs veh, AEBP2 / RFU, SNHG1 /// SNORD22 /// SNORD25 /// SNORD26 /// SNORD27 /// SNORD28 /// SNORD29 /// SNORD31 / Fold change vs veh, SNHG1 /// SNORD22 /// SNORD25 /// SNORD26 /// SNORD27 /// SNORD28 /// SNORD29 /// SNORD31 / Fold change (Aza/veh), C12orf56 (ProbeSet 11735607_a_at) / Fold change (ACY-1035/veh), C12orf56 (ProbeSet 11735607_a_at) / Fold change (Aza/veh), FGFR1OP (ProbeSet 11751329_s_at) / Fold change (ACY-1035/veh), FGFR1OP (ProbeSet 11751329_s_at) / Fold change (Aza/veh), VPS36 (ProbeSet 11739960_a_at) / Fold change (ACY-1035/veh), VPS36 (ProbeSet 11739960_a_at) / RFU SYPL1 (11715823_x_at) / Fold change /veh SYPL1 (11715823_x_at) / RFU IGFBP7 (11715501_s_at) / Fold change /veh IGFBP7 (11715501_s_at) / RFU REEP3 (11722064_at) / Fold change /veh REEP3 (11722064_at) / RFU IGLL1 (11728026_x_at) / Fold change /veh IGLL1 (11728026_x_at): dose or concentration left out as unconfirmed. Conditions: ProbeSet 11732433_s_at; LIST B. Type of assay: cell-based, human.

Take `Nc1ccc(-c2cccs2)cc1NC(=O)c1ccc2c(c1)cc(C1CC1)n2CCN1CCOCC1` [ACY-1035]: the “RFU, GK” value is 305.66 RFU.
